#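 Each compound was tested at five concentrations against cells in 96-well plates for 48 hours. The concentration for 50% growth inhibition is given as GI50.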 Active and inactive are the calls of the source. No stated cut-off is given here; in the data, active = GI50 up to about 1.1 µM and inactive = higher.
# Tests used:
# Test in all cases: NCI tumour cell line growth inhibition, 48 h
# [1] = tested on: K562
# [2] = tested on: UACC-257
# [3] = tested on: NCI-H460
# [4] = tested on: T47D
# [5] = tested on: SR
# [6] = tested on: SW-620
# [7] = tested on: HT-29
# [8] = tested on: SK-OV-3
# [9] = tested on: HCC 2998
# [10] = tested on: ACHN
# [11] = tested on: SN12C
# [12] = tested on: UO-31
# [13] = tested on: CCRF-CEM
# [14] = tested on: MCF7
# [15] = tested on: SF-295
# [16] = tested on: MDA-MB-231
# [17] = tested on: NCI-H23
# [18] = tested on: SF-539
# [19] = tested on: 786-0
# [20] = tested on: SNB-19
# [21] = tested on: CAKI-1
# [22] = tested on: KM12
# [23] = tested on: NCI/ADR-RES
# [24] = tested on: BT-549
# [25] = tested on: NCI-H226
# [26] = tested on: SK-MEL-5
# [27] = tested on: SF-268
# [28] = tested on: Hs-578T
# [29] = tested on: TK-10
# [30] = tested on: M14
# [31] = tested on: OVCAR-8
# [32] = tested on: DU-145
# [33] = tested on: EKVX
# [34] = tested on: MDA-N
# [35] = tested on: OVCAR-3
# [36] = tested on: RPMI-8226
# [37] = tested on: NCI-H522
# [38] = tested on: MOLT-4
# [39] = tested on: SK-MEL-28
# [40] = tested on: COLO 205
# [41] = tested on: HL-60
# [42] = tested on: RXF 393
# [43] = tested on: HOP-62
# [44] = tested on: HCT-15
# [45] = tested on: HCT-116
# [46] = tested on: SNB-75
# [47] = tested on: UACC-62
# [48] = tested on: IGROV-1
# [49] = tested on: A549
# [50] = tested on: OVCAR-4
# [51] = tested on: PC-3
# [52] = tested on: MDA-MB-435
# [53] = tested on: U-251
# [54] = tested on: A498
# [55] = tested on: Malme-3M
# [56] = tested on: SK-MEL-2
# [57] = tested on: OVCAR-5
# [58] = tested on: LOX IMVI
# [59] = tested on: HOP-92
smiles,measurement,setting,value
O=C1/C(=C/c2ccc(Cl)cc2)Oc2ccccc21,GI50,[1],> 100 µM (inactive)
same,GI50,[2],64.7 µM (inactive)
same,GI50,[3],26.4 µM (inactive)
same,GI50,[4],27.4 µM (inactive)
same,GI50,[5],51.2 µM (inactive)
same,GI50,[6],> 100 µM (inactive)
same,GI50,[7],> 100 µM (inactive)
same,GI50,[8],> 100 µM (inactive)
same,GI50,[9],> 100 µM (inactive)
same,GI50,[10],20.4 µM (inactive)
same,GI50,[11],96.8 µM (inactive)
same,GI50,[12],16.8 µM (inactive)
same,GI50,[13],> 100 µM (inactive)
same,GI50,[14],30.2 µM (inactive)
same,GI50,[15],56.5 µM (inactive)
same,GI50,[16],> 100 µM (inactive)
same,GI50,[17],23.4 µM (inactive)
same,GI50,[18],20.6 µM (inactive)
same,GI50,[19],15.7 µM (inactive)
same,GI50,[20],37 µM (inactive)
same,GI50,[21],2.76 µM (inactive)
same,GI50,[22],32.4 µM (inactive)
same,GI50,[23],> 10 µM (inactive)
same,GI50,[24],25.6 µM (inactive)
same,GI50,[25],38.1 µM (inactive)
same,GI50,[26],20.4 µM (inactive)
same,GI50,[27],51.6 µM (inactive)
same,GI50,[28],18.7 µM (inactive)
same,GI50,[29],22.7 µM (inactive)
same,GI50,[30],43.8 µM (inactive)
same,GI50,[31],29.9 µM (inactive)
same,GI50,[32],19.7 µM (inactive)
same,GI50,[33],22.1 µM (inactive)
same,GI50,[34],37.3 µM (inactive)
same,GI50,[35],> 100 µM (inactive)
same,GI50,[36],58.2 µM (inactive)
same,GI50,[37],11.7 µM (inactive)
same,GI50,[38],55.6 µM (inactive)
same,GI50,[39],> 100 µM (inactive)
same,GI50,[40],47.1 µM (inactive)
same,GI50,[41],> 100 µM (inactive)
same,GI50,[42],21.4 µM (inactive)
same,GI50,[43],22.3 µM (inactive)
same,GI50,[44],66.7 µM
same,GI50,[45],59.4 µM (inactive)
same,GI50,[46],32.7 µM (inactive)
same,GI50,[47],58.6 µM (inactive)
same,GI50,[48],> 10 µM (inactive)
same,GI50,[49],18.7 µM (inactive)
same,GI50,[50],46.5 µM (inactive)
same,GI50,[51],> 10 µM (inactive)
same,GI50,[52],79.3 µM (inactive)
same,GI50,[53],36.3 µM (inactive)
CC1(C)OC(=O)C2(O1)C(=O)C1CCCCC12 (centres undefined),GI50,[1],> 100 µM (inactive)
same,GI50,[2],40 µM (inactive)
same,GI50,[54],4.78 µM (inactive)
same,GI50,[4],> 100 µM (inactive)
same,GI50,[55],67.9 µM (inactive)
same,GI50,[6],> 100 µM (inactive)
same,GI50,[7],> 100 µM (inactive)
same,GI50,[8],8.51 µM (inactive)
same,GI50,[9],> 100 µM (inactive)
same,GI50,[10],> 100 µM (inactive)
same,GI50,[11],3.63 µM (inactive)
same,GI50,[56],> 100 µM (inactive)
same,GI50,[12],82.2 µM (inactive)
same,GI50,[13],8.97 µM (inactive)
same,GI50,[14],5.75 µM (inactive)
same,GI50,[15],> 100 µM (inactive)
same,GI50,[16],3.84 µM (inactive)
same,GI50,[17],> 100 µM (inactive)
same,GI50,[19],35.6 µM (inactive)
same,GI50,[20],8.39 µM (inactive)
same,GI50,[21],10.2 µM (inactive)
same,GI50,[22],> 100 µM (inactive)
same,GI50,[23],> 100 µM (inactive)
same,GI50,[24],23.9 µM (inactive)
same,GI50,[25],45.4 µM (inactive)
same,GI50,[26],> 100 µM (inactive)
same,GI50,[27],> 100 µM (inactive)
same,GI50,[28],32.4 µM (inactive)
same,GI50,[57],44.6 µM (inactive)
same,GI50,[29],70.5 µM (inactive)
same,GI50,[30],> 100 µM (inactive)
same,GI50,[31],> 100 µM (inactive)
same,GI50,[32],> 100 µM (inactive)
same,GI50,[33],21 µM (inactive)
same,GI50,[34],30.9 µM (inactive)
same,GI50,[35],> 100 µM (inactive)
same,GI50,[36],> 100 µM (inactive)
same,GI50,[37],12 µM (inactive)
same,GI50,[38],> 100 µM (inactive)
same,GI50,[39],> 100 µM (inactive)
same,GI50,[40],20.1 µM (inactive)
same,GI50,[42],4.89 µM (inactive)
same,GI50,[43],62.8 µM (inactive)
same,GI50,[44],86.9 µM
same,GI50,[45],> 100 µM (inactive)
same,GI50,[47],82.4 µM (inactive)
same,GI50,[48],> 100 µM (inactive)
same,GI50,[49],26.9 µM (inactive)
same,GI50,[50],9.73 µM (inactive)
same,GI50,[51],> 100 µM (inactive)
same,GI50,[52],> 100 µM (inactive)
same,GI50,[53],97.1 µM (inactive)
O=c1[nH]c(=O)n2n1C1C=CC2CC1,GI50,[1],> 100 µM (inactive)
same,GI50,[2],> 100 µM (inactive)
same,GI50,[54],> 100 µM (inactive)
same,GI50,[3],> 100 µM (inactive)
same,GI50,[4],> 100 µM (inactive)
same,GI50,[5],> 100 µM (inactive)
same,GI50,[6],> 100 µM (inactive)
same,GI50,[7],> 100 µM (inactive)
same,GI50,[8],> 100 µM (inactive)
same,GI50,[10],> 100 µM (inactive)
same,GI50,[11],> 100 µM (inactive)
same,GI50,[56],> 100 µM (inactive)
same,GI50,[58],> 100 µM (inactive)
same,GI50,[12],> 100 µM (inactive)
same,GI50,[13],> 100 µM (inactive)
same,GI50,[14],> 100 µM (inactive)
same,GI50,[15],> 100 µM (inactive)
same,GI50,[16],> 100 µM (inactive)
same,GI50,[17],> 100 µM (inactive)
same,GI50,[18],> 100 µM (inactive)
same,GI50,[19],> 100 µM (inactive)
same,GI50,[20],> 100 µM (inactive)
same,GI50,[21],> 100 µM (inactive)
same,GI50,[22],> 100 µM (inactive)
same,GI50,[23],> 100 µM (inactive)
same,GI50,[24],> 100 µM (inactive)
same,GI50,[25],> 100 µM (inactive)
same,GI50,[26],> 100 µM (inactive)
same,GI50,[27],> 100 µM (inactive)
same,GI50,[59],> 100 µM (inactive)
same,GI50,[28],> 100 µM (inactive)
same,GI50,[57],> 100 µM (inactive)
same,GI50,[29],> 100 µM (inactive)
same,GI50,[30],> 100 µM (inactive)
same,GI50,[31],> 100 µM (inactive)
same,GI50,[32],> 100 µM (inactive)
same,GI50,[33],> 100 µM (inactive)
same,GI50,[34],> 100 µM (inactive)
same,GI50,[35],> 100 µM (inactive)
same,GI50,[36],> 100 µM (inactive)
same,GI50,[38],> 100 µM (inactive)
same,GI50,[39],> 100 µM (inactive)
same,GI50,[40],> 100 µM (inactive)
same,GI50,[41],> 100 µM (inactive)
same,GI50,[43],> 100 µM (inactive)
same,GI50,[44],> 100 µM
same,GI50,[45],> 100 µM (inactive)
same,GI50,[46],> 100 µM (inactive)
same,GI50,[47],> 100 µM (inactive)
same,GI50,[48],> 100 µM (inactive)
same,GI50,[49],> 100 µM (inactive)
same,GI50,[51],> 100 µM (inactive)
same,GI50,[52],> 100 µM (inactive)
same,GI50,[53],> 100 µM (inactive)
